From US8026236B2, “6-phenyl-1H-imidazo[4,5-c]pyridine-4-carbonitrile derivatives” (N.V. Organon, priority 2009, dated 2011)

Target: recombinant human Cathepsin S (Homo sapiens, UniProt P25774)
Assay: Cathepsin S assay procedure (inhibition of recombinant human Cathepsin S, fluorogenic substrate Z-Val-Val-Arg-AMC)
Assay type: biochemical
Details: pH5.5, 20 minutes, read-out: pIC50 (negative logarithm of the IC50 concentration) for inhibition of human cathepsin S (converted)
Description: To a 384 well microtitre plate is added 10 μl of a 1000 solution of test compound in assay buffer (100 mM sodium acetate pH5.5, 5 mM EDTA, 5 mM dithiothreitol) with 10% dimethylsulfoxide (DMSO), plus 200 of 2500 solution of the substrate Z-Val-Val-Arg-AMC (7-amido-coumarine derivative of the tripeptide N-benzyloxy-carbonyl-Val-Val-Arg-OH) in assay buffer and 45 μl of assay buffer. 25 μl of a 2 mg/l solution of activated recombinant human cathepsin S, in assay buffer, is then added to the well, yielding a final inhibitor concentration of 10 μM. Enzyme activity is determined by measuring the fluorescence of the liberated aminomethylcoumarin at […] using 390 nm excitation, at 20 minutes. Percentage enzyme activity is calculated by comparison of this activity to that of a solution containing no inhibitor. Compounds are subsequently subjected to a dose response curve analysis in order to determine IC50 values for active compounds (where IC50 is the concentration of test compound causing 50% inhibition of the enzymatic activity). Compounds of the invention typically have a pIC50 (negative logarithm of the IC50 concentration) for inhibition of human cathepsin S of more than 6. Most compounds of the invention have a pIC50 of more than 7, such as exemplified by the compounds of examples 1a, 1b, 2a, 7d, 12a, 14a, 14b, 14c, 14d, 14e, 14f, 14g, 14h, 14i, 17, 18.

recombinant human Cathepsin S, sequence (P25774 115-331): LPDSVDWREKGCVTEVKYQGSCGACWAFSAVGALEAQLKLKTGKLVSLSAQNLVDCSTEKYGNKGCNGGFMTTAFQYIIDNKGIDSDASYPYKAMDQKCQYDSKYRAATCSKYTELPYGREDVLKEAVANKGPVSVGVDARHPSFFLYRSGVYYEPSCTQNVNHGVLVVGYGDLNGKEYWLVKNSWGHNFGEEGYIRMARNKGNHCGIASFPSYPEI

CC(=O)Nc1cccc(COc2ccc(-c3cc4c(ncn4C)c(C#N)n3)cc2C(F)(F)F)c1 [Example 17]
IC50: < 100 nM
